Assay results from PubChem BioAssay (NCI).
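1) Cells in 96-well plates. 2) Compound, 48 h, 5 concentrations. 3) Linear interpolation between surrounding doses. 4) Unreached endpoint = highest concentration. GI50: concentration for 50% inhibition of growth. TGI: total growth inhibition.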

Legend:
Assay in all cases: inhibition of tumour cell growth, NCI panel, 48 h
ACHN renal = tested on: ACHN renal
IGROV1 ovarian = tested on: IGROV1 ovarian
M14 melanoma = tested on: M14 melanoma
UACC-62 melanoma = tested on: UACC-62 melanoma
MCF7 breast = tested on: MCF7 breast
HCC-2998 colon = tested on: HCC-2998 colon
HS 578T breast = tested on: HS 578T breast
HCT-116 colon = tested on: HCT-116 colon
PC-3 prostate = tested on: PC-3 prostate
CCRF-CEM leukemia = tested on: CCRF-CEM leukemia
SK-OV-3 ovarian = tested on: SK-OV-3 ovarian
A498 renal = tested on: A498 renal
786-0 renal = tested on: 786-0 renal
NCI/ADR-RES ovarian = tested on: NCI/ADR-RES ovarian
HL-60(TB) leukemia = tested on: HL-60(TB) leukemia
BT-549 breast = tested on: BT-549 breast
LOX IMVI melanoma = tested on: LOX IMVI melanoma
OVCAR-5 ovarian = tested on: OVCAR-5 ovarian
MOLT-4 leukemia = tested on: MOLT-4 leukemia
OVCAR-8 ovarian = tested on: OVCAR-8 ovarian
MDA-MB-231 breast = tested on: MDA-MB-231 breast
CAKI-1 renal = tested on: CAKI-1 renal
OVCAR-4 ovarian = tested on: OVCAR-4 ovarian
KM12 colon = tested on: KM12 colon
HOP-92 NSCLC = tested on: HOP-92 NSCLC
SNB-75 CNS = tested on: SNB-75 CNS
EKVX NSCLC = tested on: EKVX NSCLC
RXF 393 renal = tested on: RXF 393 renal
SR leukemia = tested on: SR leukemia
SN12C renal = tested on: SN12C renal
U251 CNS = tested on: U251 CNS
NCI-H226 lung = tested on: NCI-H226 lung
HOP-62 NSCLC = tested on: HOP-62 NSCLC
NCI-H522 lung = tested on: NCI-H522 lung
SK-MEL-28 melanoma = tested on: SK-MEL-28 melanoma
MDA-MB-435 = tested on: MDA-MB-435
MALME-3M melanoma = tested on: MALME-3M melanoma
COLO 205 colon = tested on: COLO 205 colon
DU-145 prostate = tested on: DU-145 prostate
HT29 colon = tested on: HT29 colon
A549 NSCLC = tested on: A549 NSCLC
SK-MEL-2 melanoma = tested on: SK-MEL-2 melanoma
SF-295 CNS = tested on: SF-295 CNS
NCI-H460 lung = tested on: NCI-H460 lung
SF-539 CNS = tested on: SF-539 CNS
NCI-H23 lung = tested on: NCI-H23 lung
K-562 leukemia = tested on: K-562 leukemia
SK-MEL-5 melanoma = tested on: SK-MEL-5 melanoma
SF-268 CNS = tested on: SF-268 CNS
OVCAR-3 ovarian = tested on: OVCAR-3 ovarian
UO-31 renal = tested on: UO-31 renal
SNB-19 CNS = tested on: SNB-19 CNS
T-47D breast = tested on: T-47D breast
TK-10 renal = tested on: TK-10 renal
HCT-15 colon = tested on: HCT-15 colon
SW-620 colon = tested on: SW-620 colon
RPMI-8226 leukemia = tested on: RPMI-8226 leukemia
UACC-257 melanoma = tested on: UACC-257 melanoma

How did the GI50 (ACHN renal) turn out when `COc1ccc(C(O)c2cc3c(N)c(C(=O)Nc4ccc(Br)cc4)sc3nc2C)cc1` (stereo unspecified) was run?
Its GI50 is 3.93 µM.

What about the TGI (ACHN renal) of the same compound?
The TGI was 16.4 µM.

And the GI50 (IGROV1 ovarian)?
The GI50 was 3.37 µM.

What about the TGI (IGROV1 ovarian) of the same compound?
Its TGI is 26 µM.

What about the GI50 (M14 melanoma) of the same compound?
Its GI50 is 2.35 µM.

What about the TGI (M14 melanoma) of the same compound?
The TGI was 20 µM.

And the GI50 (UACC-62 melanoma)?
Its GI50 is 2.49 µM.

And the TGI (UACC-62 melanoma)?
The TGI was 29.1 µM.

And the GI50 (MCF7 breast)?
The GI50 was 1.63 µM.

And the TGI (MCF7 breast)?
The TGI was 15.2 µM.

What about the GI50 (HCC-2998 colon) of the same compound?
Its GI50 is 2.68 µM.

What about the TGI (HCC-2998 colon) of the same compound?
Its TGI is 10.4 µM.

What about the GI50 (HS 578T breast) of the same compound?
Its GI50 is 2.19 µM.

And the TGI (HS 578T breast)?
Its TGI is 5.63 µM.

What about the GI50 (HCT-116 colon) of the same compound?
The GI50 was 2.4 µM.

What about the TGI (HCT-116 colon) of the same compound?
Its TGI is 11.3 µM.

And the GI50 (PC-3 prostate)?
The GI50 was 3.2 µM.

What about the TGI (PC-3 prostate) of the same compound?
The TGI was 25 µM.

And the GI50 (CCRF-CEM leukemia)?
Its GI50 is 2.78 µM.

What about the TGI (CCRF-CEM leukemia) of the same compound?
Its TGI is greater than 100 µM.

And the GI50 (SK-OV-3 ovarian)?
Its GI50 is 3.04 µM.

What about the TGI (SK-OV-3 ovarian) of the same compound?
The TGI was 12.9 µM.

And the GI50 (A498 renal)?
Its GI50 is 3.54 µM.

And the TGI (A498 renal)?
The TGI was 19.8 µM.

What about the GI50 (786-0 renal) of the same compound?
Its GI50 is 7.58 µM.

What about the TGI (786-0 renal) of the same compound?
Its TGI is 29.3 µM.

And the GI50 (NCI/ADR-RES ovarian)?
Its GI50 is 3.38 µM.

What about the TGI (NCI/ADR-RES ovarian) of the same compound?
The TGI was 19 µM.

What about the GI50 (HL-60(TB) leukemia) of the same compound?
Its GI50 is 2.41 µM.

And the TGI (HL-60(TB) leukemia)?
The TGI was 13.5 µM.

What about the GI50 (BT-549 breast) of the same compound?
The GI50 was 3.02 µM.

What about the TGI (BT-549 breast) of the same compound?
Its TGI is 18.6 µM.

What about the GI50 (LOX IMVI melanoma) of the same compound?
The GI50 was 2.75 µM.

And the TGI (LOX IMVI melanoma)?
Its TGI is 11.6 µM.

What about the GI50 (OVCAR-5 ovarian) of the same compound?
The GI50 was 3.58 µM.

And the TGI (OVCAR-5 ovarian)?
Its TGI is 31.9 µM.

What about the GI50 (MOLT-4 leukemia) of the same compound?
Its GI50 is 3.27 µM.

And the TGI (MOLT-4 leukemia)?
The TGI was greater than 100 µM.

What about the GI50 (OVCAR-8 ovarian) of the same compound?
The GI50 was 3.15 µM.

And the TGI (OVCAR-8 ovarian)?
Its TGI is 12.9 µM.

What about the GI50 (MDA-MB-231 breast) of the same compound?
The GI50 was 3.18 µM.

What about the TGI (MDA-MB-231 breast) of the same compound?
The TGI was 16.9 µM.

What about the GI50 (CAKI-1 renal) of the same compound?
The GI50 was 3.5 µM.

What about the TGI (CAKI-1 renal) of the same compound?
The TGI was 14.2 µM.

And the GI50 (OVCAR-4 ovarian)?
The GI50 was 2.01 µM.

And the TGI (OVCAR-4 ovarian)?
Its TGI is 6.57 µM.

What about the GI50 (KM12 colon) of the same compound?
Its GI50 is 2.45 µM.

And the TGI (KM12 colon)?
The TGI was 11.1 µM.

What about the GI50 (HOP-92 NSCLC) of the same compound?
The GI50 was 2.74 µM.

What about the TGI (HOP-92 NSCLC) of the same compound?
The TGI was 23 µM.

What about the GI50 (SNB-75 CNS) of the same compound?
Its GI50 is 2.18 µM.

What about the TGI (SNB-75 CNS) of the same compound?
The TGI was 6.22 µM.

And the GI50 (EKVX NSCLC)?
The GI50 was 3.29 µM.

What about the TGI (EKVX NSCLC) of the same compound?
Its TGI is 35 µM.

And the GI50 (RXF 393 renal)?
Its GI50 is 2.51 µM.

What about the TGI (RXF 393 renal) of the same compound?
Its TGI is 9.19 µM.

What about the GI50 (SR leukemia) of the same compound?
The GI50 was 0.594 µM.

And the TGI (SR leukemia)?
Its TGI is greater than 100 µM.

What about the GI50 (SN12C renal) of the same compound?
The GI50 was 3.66 µM.

And the TGI (SN12C renal)?
Its TGI is 17.3 µM.

What about the GI50 (U251 CNS) of the same compound?
Its GI50 is 2.5 µM.

And the TGI (U251 CNS)?
Its TGI is 11.2 µM.

What about the GI50 (NCI-H226 lung) of the same compound?
The GI50 was 2.58 µM.

What about the TGI (NCI-H226 lung) of the same compound?
The TGI was 9.16 µM.

What about the GI50 (HOP-62 NSCLC) of the same compound?
The GI50 was 3.02 µM.

What about the TGI (HOP-62 NSCLC) of the same compound?
The TGI was 11 µM.

And the GI50 (NCI-H522 lung)?
The GI50 was 2.62 µM.

What about the TGI (NCI-H522 lung) of the same compound?
The TGI was 16 µM.

And the GI50 (SK-MEL-28 melanoma)?
Its GI50 is 5.16 µM.

And the TGI (SK-MEL-28 melanoma)?
Its TGI is greater than 100 µM.

And the GI50 (MDA-MB-435)?
Its GI50 is 0.492 µM.

And the TGI (MDA-MB-435)?
The TGI was 2.76 µM.

What about the GI50 (MALME-3M melanoma) of the same compound?
The GI50 was 2.43 µM.

And the TGI (MALME-3M melanoma)?
Its TGI is 13 µM.

And the GI50 (COLO 205 colon)?
The GI50 was 3.74 µM.

What about the TGI (COLO 205 colon) of the same compound?
Its TGI is 27 µM.

And the GI50 (DU-145 prostate)?
Its GI50 is 2.52 µM.

What about the TGI (DU-145 prostate) of the same compound?
The TGI was 6.18 µM.

And the GI50 (HT29 colon)?
The GI50 was 2.4 µM.

And the TGI (HT29 colon)?
Its TGI is 6.51 µM.

What about the GI50 (A549 NSCLC) of the same compound?
The GI50 was 2.64 µM.

And the TGI (A549 NSCLC)?
The TGI was 8.01 µM.

And the GI50 (SK-MEL-2 melanoma)?
Its GI50 is 7.69 µM.

And the TGI (SK-MEL-2 melanoma)?
The TGI was 47.1 µM.

What about the GI50 (SF-295 CNS) of the same compound?
Its GI50 is 2.55 µM.

What about the TGI (SF-295 CNS) of the same compound?
The TGI was 8.81 µM.

And the GI50 (NCI-H460 lung)?
Its GI50 is 2.16 µM.

What about the TGI (NCI-H460 lung) of the same compound?
The TGI was 4.66 µM.

And the GI50 (SF-539 CNS)?
Its GI50 is 2.08 µM.

And the TGI (SF-539 CNS)?
Its TGI is 4.98 µM.

And the GI50 (NCI-H23 lung)?
The GI50 was 6.11 µM.

And the TGI (NCI-H23 lung)?
The TGI was 82.2 µM.

And the GI50 (K-562 leukemia)?
The GI50 was 1.13 µM.

What about the TGI (K-562 leukemia) of the same compound?
The TGI was greater than 100 µM.

What about the GI50 (SK-MEL-5 melanoma) of the same compound?
The GI50 was 3.16 µM.

What about the TGI (SK-MEL-5 melanoma) of the same compound?
The TGI was 11.4 µM.

What about the GI50 (SF-268 CNS) of the same compound?
Its GI50 is 3.74 µM.

And the TGI (SF-268 CNS)?
The TGI was 18.5 µM.

What about the GI50 (OVCAR-3 ovarian) of the same compound?
Its GI50 is 2.19 µM.

What about the TGI (OVCAR-3 ovarian) of the same compound?
Its TGI is 4.64 µM.

What about the GI50 (UO-31 renal) of the same compound?
The GI50 was 4.22 µM.

What about the TGI (UO-31 renal) of the same compound?
Its TGI is 21.3 µM.

And the GI50 (SNB-19 CNS)?
The GI50 was 3.7 µM.

What about the TGI (SNB-19 CNS) of the same compound?
Its TGI is 60.3 µM.

What about the GI50 (T-47D breast) of the same compound?
Its GI50 is 3.14 µM.

What about the TGI (T-47D breast) of the same compound?
The TGI was 39.7 µM.

And the GI50 (TK-10 renal)?
The GI50 was 8.18 µM.

What about the TGI (TK-10 renal) of the same compound?
Its TGI is 34.3 µM.

What about the GI50 (HCT-15 colon) of the same compound?
Its GI50 is 1.57 µM.

What about the TGI (HCT-15 colon) of the same compound?
The TGI was 13.4 µM.

And the GI50 (SW-620 colon)?
The GI50 was 3.37 µM.

And the TGI (SW-620 colon)?
The TGI was 25.9 µM.

What about the GI50 (RPMI-8226 leukemia) of the same compound?
Its GI50 is 2.32 µM.

And the TGI (RPMI-8226 leukemia)?
The TGI was 19.7 µM.

And the GI50 (UACC-257 melanoma)?
Its GI50 is 3.51 µM.

What about the TGI (UACC-257 melanoma) of the same compound?
Its TGI is 34.6 µM.
